Reference: US10316057B2, “Tandem facial amphiphiles” (WISCONSIN ALUMNI RESEARCH FOUNDATION, priority 2011, dated 2019)
Counter-ions that a name gives are not always drawn.

Legend:
[1] = Hydrodynamic radii of micelles by dynamic light scattering (DLS); assay type: physicochemical; conditions: 0.5 wt % amphiphile in water, 25° C.; mean ± SD, n = 3
Procedure: TFA-0 forms a hydrogel at concentrations >0.4 wt %, and this compound was not studied further. The other three TFAs are soluble to 5-10 wt % in aqueous media. Critical micelle concentrations (CMC) were determined by monitoring solubilization of a hydrophobic fluorescent dye, […] (Chattopadhyay et al., Anal. Biochem. 1984, 139, 408-412), and the hydrodynamic radii (Rh) of the micelles were determined via dynamic light scattering (DLS). Table 1 compares the data for TFAs with those for DDM, a conventional detergent that is very widely used for MP applications; DDM and the TFAs share maltose as their hydrophilic moieties. CMC values of the three TFAs are smaller than that of DDM, whether CMC is measured in units of mM or wt %.
Each TFA and DDM was dissolved in distilled, deionized (DI) water to obtain 1 mL of a solution containing 0.5 wt % amphiphile. Each solution was filtered through a 0.02 μm filter for DLS measurements. A 100-mW, 532-nm laser (Compass 315M-100, Coherent, Santa Clara, Calif.) illuminated a temperature-controlled glass cell at 25° C. that was filled with a refractive-index matching fluid (decahydronaphthalene, Fisher Scientific, Pittsburgh, Pa.). The scattered light was collected at an angle of 90° for about 30 minutes. Rh values were determined using the integrated dynamics software that analyzes the time scale of the scattered light intensity fluctuations by an autocorrelation function. The autocorrelation functions (ACFs) were obtained using a BI-9000AT digital autocorrelator (Brookhaven Instruments, Holtsville, N.Y.). Measurements were repeated three times.

[2] = system: leucine transporter (LeuT WT); experiment: LeuT functionality assay ([3H]-Leu binding by scintillation proximity assay); design: species or system Aquifex aeolicus; conditions: room temperature
From the text: The wild type of bacterial leucine transporter (LeuT WT) was examined because the functional state of this membrane protein is readily assessed by using a scintillation proximity assay (SPA) (Quick et al., Proc. Natl. Acad. Sci. USA 2007, 104, 3603-3608) to monitor binding of radiolabelled leucine. LeuT was initially extracted with DDM and then diluted with amphiphile-containing solutions to generate final TFA concentrations of 0.04 wt % or 0.2 wt % (residual DDM=0.005 wt %). Control samples had 0.05 wt % or 0.2 wt % DDM (overall, the final concentrations were CMC+0.04 wt % or CMC+0.2 wt %).
The wild type of the leucine transporter (LeuT WT) from Aquifex aeolicus was expressed in Escherichia coli essentially as described by Deckert et al. (Nature 392, 353-358 (1998)). The pET16b-LeuT WT-8His plasmid was kindly provided by Dr. Eric Gouaux, Vollum Institute, Portland Oreg. LeuT WT was extracted from isolated bacterial membranes solubilized with 1% DDM, bound to Ni^2+-affinity Chelating Sepharose Fast Flow resin (GE Healthcare, USA), and eluted in buffer consisted of 20 mM Tris-HCl (pH 8.0), 1 mM NaCl, 199 mM KCl, 0.05% DDM and 300 mM imidazole. […] After incubation at room temperature, at the indicated time points, samples were centrifuged and the protein concentration was determined by absorbance measurements at 280 nm. Concomitantly, [^3H]-Leu binding was determined using scintillation proximity assay (SPA) (Quick and Javitch, Proc. Natl. Acad. Sci. USA 104, 3603-3608 (2007)), with the reaction mixture consisted of 5 μL from the respective samples, 33.3 nM [^3H]-Leu (PerkinElmer, USA) and copper chelate (His-Tag) YSi beads (GE Healthcare). […] Normalized results are expressed as mean±SEM (n=2), as illustrated in FIG. 11 (long-term solubility of LeuT WT incubated in the presence of TFA-1, TFA-3, and DDM at (a) CMC+0.04 wt % or (b) CMC+0.2 wt % at room temperature).

Bacteriorhodopsin (bR) = target: T1, Bacteriorhodopsin (bR) (Halobacterium salinarum, UniProt P02945); experiment: Stabilization assay for bacteriorhodopsin (absorbance at 554 nm); conditions: day 20, room temperature, 0.2 wt % OTG+0.8 wt % TFA
T1 construct: extract bR from the native purple membrane; endogenous in cells
T1 sequence (P02945 14-261 limits assumed): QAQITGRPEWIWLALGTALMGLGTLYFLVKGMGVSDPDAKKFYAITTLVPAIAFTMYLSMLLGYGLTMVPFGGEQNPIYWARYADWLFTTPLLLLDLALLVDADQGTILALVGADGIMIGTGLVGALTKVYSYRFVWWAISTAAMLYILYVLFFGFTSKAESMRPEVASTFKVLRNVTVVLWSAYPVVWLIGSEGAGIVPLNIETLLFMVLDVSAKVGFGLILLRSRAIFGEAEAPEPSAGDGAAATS
Procedure: Bacteriorhodopsin (bR) has been widely employed for assessment of new amphiphiles because this membrane protein is readily available, and stability can be assessed via spectrophotometry (absorbance at 554 nm). Following standard protocols (Bazzacco et al., Biomacromolecules 2009, 10, 3317-3326), 2.0 wt % octyl-β-D-thioglucoside (OTG) was used to extract bR from the native purple membrane. After removal of insoluble debris via ultracentrifugation, the bR solution was diluted with amphiphile-containing solutions to generate samples containing 0.2 wt % OTG+0.8 wt % TFA. A control sample had OTG added to give a total of 1.0 wt %. […] Parallel studies were carried out at different amphiphile concentrations as described in Example 3 below. DDM is not efficient at bR extraction from the native membrane but extracted bR can be stable in the presence of DDM (Milder et al., Biochemistry 1991, 30, 1751-1761).
The general procedure was followed according to the reported protocol of Bazzacco et al. (Biomacromolecules 10, 3317-3326 (2009)). Frozen aliquots of purple membranes containing bR at 184 μM were thawed and solubilized by incubation with octylthioglucoside (OTG) for 24 hr at 4° C. in a dark room. For the solubilization, OTG (CMC=0.28 wt %) was used at 2.0 wt % in 10 mM sodium phosphate (pH 6.9). […] BR stability in each TFA solutions was monitored by measuring absorbance at 554 nm for 20 days.

SMILES	Rh (nm), hydrodynamic radius of micelles measured by dynamic light scattering [1] [nm]	maintaining LeuT WT function over 12 days ([2]; lower amphiphile concentration, CMC+0.04 wt %)	bR intact (Bacteriorhodopsin (bR)) [%]	maintaining LeuT WT function over 12 days ([2]; higher amphiphile concentration, CMC+0.2 wt %)
CCCCCCCCCCCCO[C@@H]1O[C@H](CO)[C@@H](O[C@H]2O[C@H](CO)[C@@H](O)[C@H](O)[C@H]2O)[C@H](O)[C@H]1O [DDM, dodecyl-β-D-maltoside, reference compound]	3.4 ± 0.03	slightly better than the TFAs		
C[C@H](CCC(=O)N(C)CCCN(C)C(=O)CC[C@@H](C)[C@H]1CC[C@H]2[C@@H]3CC[C@@H]4C[C@H](O[C@@H]5O[C@H](CO)[C@@H](O[C@H]6O[C@H](CO)[C@@H](O)[C@H](O)[C@H]6O)[C@H](O)[C@H]5O)CC[C@]4(C)[C@H]3C[C@H](O[C@@H]3O[C@H](CO)[C@@H](O[C@H]4O[C@H](CO)[C@@H](O)[C@H](O)[C@H]4O)[C@H](O)[C@H]3O)[C@]12C)[C@H]1CC[C@H]2[C@@H]3CC[C@@H]4C[C@H](O[C@@H]5O[C@H](CO)[C@@H](O[C@H]6O[C@H](CO)[C@@H](O)[C@H](O)[C@H]6O)[C@H](O)[C@H]5O)CC[C@]4(C)[C@H]3C[C@H](O[C@@H]3O[C@H](CO)[C@@H](O[C@H]4O[C@H](CO)[C@@H](O)[C@H](O)[C@H]4O)[C@H](O)[C@H]3O)[C@]12C [TFA-1]	1.9 ± 0.08		~80	matched DDM at the lower concentration
